Reference: US9023851B2 (Merck Patent GmbH, priority 2010, dated 2015)

Columns and labels:
Assay type in all cases: biochemical
Syk = target: T1, Syk (Homo sapiens, UniProt P43405); assay: Syk enzyme assay (flash plate / Caliper mobility shift)
T1 construct: purchased BPS Bioscience, CA, USA
Protocol: The kinase assay is performed either as 384-well Flashplate assay (for e.g. Topcount measurement) or as 384-well Image-Flashplate assay (for LEADseeker measurement).
2.5 nM SYK, 400 nM Biotin-Aha-Aha-[…] and 10 μM ATP (spiked with 0.3 μCi 33P-ATP/well) are incubated in a total volume of 50 μl (60 mM Hepes, 10 mM MgCl2, 1.2 mM Dithiothreitol, 0.02% Brij35, 0.1% BSA, pH 7.5) with or without test compound for 1 hours at 30° C. The reaction is stopped with 25 μl 200 mM EDTA. After 30 Min at 30° C. the liquid is removed and each well washed thrice with 100 μl 0.9% sodium chloride solution. Non-specific reaction is determined in presence of 0.1 μM Staurosporine. Radioactivity is measured with Topcount (when using Flashplates) or with LEADseeker (when using Image-Flashplates) respectively. Results (e.g. IC50-values) are calculated with program tools provided by the IT-department (e.g. Symyx Assay Explorer, Genedata Screener).
(§1) Enzymatic Assays Using the Caliper LifeSciences Technology
(§2) The assays described here are performed on the Caliper Life Sciences LC3000 system This technology provides data on enzyme activity via measurement of the relative amounts of phosphorylated or unphosphorylated fluorescently labelled substrate peptide at the end of an enzymatic reaction. These different states of peptide are resolved by applying a potential difference across the sample. The presence of the charged phosphate group on the product (as opposed to the substrate) causes a different peptide mobility between the two peptides. This is visualized by excitation of the fluorescent label on the substrate and product peptides and represented as peaks within the analysis software.
(§3) In order to measure inhibitor activity of kinase inhibitors on this technology, a TTP Mosquito liquid handling instrument is used to place 0.25 ul of the appropriate concentration of inhibitor in 100% DMSO (for a dose response curve calculation) into each well of a 384-well plate. To this reaction components are added to a final volume of 25 ul. The table below indicates the sequences and concentrations for the assays described in this report. Standard components are 1 mM DTT (Sigma, D0632), 1 mM MgCl2 (Sigma, M1028), 100 mM HEPES pH 7.5 (Calbiochem, 391338), 0.015% Brij-35 (Sigma, B4184).
(§4) The reaction is incubated for 90 min at 25 C, and then stopped by the addition of 70 ul of Stop buffer (100 mM HEPES pH 7.5, 0.015% Brij-35, 10 mM EDTA (Sigma, E7889)).
(§5) The plate is read on a Caliper LC 3000 in an Off-Chip mobility shift assay format, on a 12-sipper chip. Unphosphorylated substrate and phosphorylated product peptide resolve as separate peaks allowing direct measurement of percentage of conversion of substrate to product. The percent conversion can be plotted against concentration of inhibitor to produce a sigmoidal dose response curve, from which an IC50 can be calculated using GeneData Condoseo or a similar product. Cellular activity assays

ZAP-70 = target: T2, ZAP-70 (Homo sapiens, UniProt P43403); assay: Zap70 enzymatic assay (Caliper LifeSciences technology)
T2 construct: purchased BPS Bioscience, CA, USA
T2 sequence (P43403 1-619): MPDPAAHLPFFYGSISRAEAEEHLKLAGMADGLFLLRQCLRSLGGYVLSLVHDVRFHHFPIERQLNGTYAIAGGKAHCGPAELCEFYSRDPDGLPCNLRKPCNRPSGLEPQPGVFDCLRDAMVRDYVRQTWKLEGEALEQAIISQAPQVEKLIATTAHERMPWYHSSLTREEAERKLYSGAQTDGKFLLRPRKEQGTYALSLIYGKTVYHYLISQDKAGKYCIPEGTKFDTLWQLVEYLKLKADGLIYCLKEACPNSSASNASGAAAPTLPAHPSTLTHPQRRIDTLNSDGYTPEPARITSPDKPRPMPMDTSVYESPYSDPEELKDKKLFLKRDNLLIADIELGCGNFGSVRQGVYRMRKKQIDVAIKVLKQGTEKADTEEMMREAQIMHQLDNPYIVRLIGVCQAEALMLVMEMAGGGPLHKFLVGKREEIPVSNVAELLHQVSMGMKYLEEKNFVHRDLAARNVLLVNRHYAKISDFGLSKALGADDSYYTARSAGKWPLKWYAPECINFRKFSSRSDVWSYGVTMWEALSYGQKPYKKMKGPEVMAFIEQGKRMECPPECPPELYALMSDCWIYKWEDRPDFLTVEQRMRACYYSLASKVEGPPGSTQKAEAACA
Protocol: as §1, §2, §3, §4, §5

KDR = target: T3, KDR (Homo sapiens, UniProt P35968); assay: KDR enzymatic assay (Caliper LifeSciences technology)
T3 construct: purchased BPS Bioscience, CA, USA
T3 sequence (P35968 20-1356): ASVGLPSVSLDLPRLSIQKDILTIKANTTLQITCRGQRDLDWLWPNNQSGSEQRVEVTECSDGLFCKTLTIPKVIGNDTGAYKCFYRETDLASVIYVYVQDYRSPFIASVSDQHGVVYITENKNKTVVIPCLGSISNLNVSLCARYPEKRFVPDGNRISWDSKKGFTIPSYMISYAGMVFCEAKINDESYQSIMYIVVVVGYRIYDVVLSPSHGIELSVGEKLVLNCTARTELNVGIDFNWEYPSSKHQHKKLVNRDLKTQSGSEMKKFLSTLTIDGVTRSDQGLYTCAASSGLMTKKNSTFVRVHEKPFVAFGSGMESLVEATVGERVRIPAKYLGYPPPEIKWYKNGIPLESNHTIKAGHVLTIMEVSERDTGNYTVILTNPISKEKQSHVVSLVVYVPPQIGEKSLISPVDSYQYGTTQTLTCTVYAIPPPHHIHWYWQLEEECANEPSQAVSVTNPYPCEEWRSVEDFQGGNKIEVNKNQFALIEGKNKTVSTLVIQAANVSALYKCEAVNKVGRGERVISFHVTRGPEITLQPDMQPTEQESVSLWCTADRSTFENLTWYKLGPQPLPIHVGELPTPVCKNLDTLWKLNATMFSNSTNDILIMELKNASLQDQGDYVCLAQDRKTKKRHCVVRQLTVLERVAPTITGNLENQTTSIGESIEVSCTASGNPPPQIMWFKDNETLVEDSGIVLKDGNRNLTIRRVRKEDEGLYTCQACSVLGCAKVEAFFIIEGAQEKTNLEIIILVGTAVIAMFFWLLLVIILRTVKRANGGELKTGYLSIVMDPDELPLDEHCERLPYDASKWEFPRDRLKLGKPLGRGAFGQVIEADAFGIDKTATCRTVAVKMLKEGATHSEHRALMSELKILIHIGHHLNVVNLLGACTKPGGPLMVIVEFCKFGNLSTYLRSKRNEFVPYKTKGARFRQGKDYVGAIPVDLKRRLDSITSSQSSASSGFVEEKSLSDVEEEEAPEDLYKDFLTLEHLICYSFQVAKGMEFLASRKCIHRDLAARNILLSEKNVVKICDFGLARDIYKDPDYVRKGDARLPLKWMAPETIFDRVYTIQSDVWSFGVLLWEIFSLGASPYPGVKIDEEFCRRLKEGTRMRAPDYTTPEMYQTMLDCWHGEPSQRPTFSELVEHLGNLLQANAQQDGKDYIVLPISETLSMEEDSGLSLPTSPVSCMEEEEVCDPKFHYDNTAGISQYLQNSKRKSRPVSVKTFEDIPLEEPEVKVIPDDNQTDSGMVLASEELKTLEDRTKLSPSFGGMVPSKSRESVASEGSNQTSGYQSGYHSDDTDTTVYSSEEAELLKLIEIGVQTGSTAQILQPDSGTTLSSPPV
Protocol: as §1, §2, §3, §4, §5

Compound	IC50 (Syk) [µM]	IC50 (ZAP-70) [µM]	IC50 (KDR) [µM]
COc1cc(Nc2nccn3nc(Nc4ccc(Sc5nccn5C)c(Cl)c4)nc23)cc(OC)c1 [Example C78, N^2-[3-Chloro-4-(1-methyl-1H-imidazol-2-ylsulfanyl)-phenyl]-N^8-(3,5-dimethoxy-phenyl)-[1,2,4]triazolo[1,5-a]pyrazine-2,8-diamine]	3 to 50	3 to 50	
CN1CCN(CCCNc2nccn3nc(Nc4ccccc4)nc23)CC1 [Example C52, N^8-[3-(4-Methyl-piperazin-1-yl)-propyl]-N^2-phenyl-[1,2,4]triazolo[1,5-a]pyrazine-2,8-diamine]		3 to 50	3 to 50
COc1cc(OC)cc(-c2nccn3nc(Nc4ccc5cnn(Cc6ccccc6)c5c4)nc23)c1 [Example C26, (1-Benzyl-1H-indazol-6-yl)-[8-(3,5-dimethoxy-phenyl)-[1,2,4]triazolo[1,5-a]pyrazin-2-yl]-amine]	0.3 to 3	0.3 to 3	
Cn1ccnc1Sc1ccc(Nc2nc3c(Cl)nccn3n2)cc1Cl [Example B6, [3-Chloro-4-(1-methyl-1H-imidazol-2-ylsulfanyl)-phenyl]-(8-chloro-[1,2,4]triazolo[1,5-a]pyrazin-2-yl)-amine]	3 to 50	3 to 50	
O=C1Cc2cc(Nc3nc4c(-c5cnc6ccccc6c5)nccn4n3)ccc2N1 [Example C263, 5-(8-Quinolin-3-yl-[1,2,4]triazolo[1,5-a]pyrazin-2-ylamino)-1,3-dihydro-indol-2-one]	3 to 50	3 to 50	
Cc1cccc(Nc2nc3c(-c4cccnc4)nccn3n2)c1 [Example C21, (8-Pyridin-3-yl-[1,2,4]triazolo[1,5-a]pyrazin-2-yl)-m-tolyl-amine]	0.3 to 3	3 to 50	0.3 to 3
c1ccc(Cn2ncc3ccc(Nc4nc5c(-c6cccnc6)nccn5n4)cc32)cc1 [Example C27, (1-Benzyl-1H-indazol-6-yl)-(8-pyridin-3-yl-[1,2,4]triazolo[1,5-a]pyrazin-2-yl)-amine]	0.3 to 3	3 to 50	
CN1CCN(CCCNc2nccn3nc(Nc4cccc(C(F)(F)F)c4)nc23)CC1 [Example C43, N^843-(4-Methyl-piperazin-1-yl)-propyq-N^2-(3-trifluoromethyl-phenyl)-[1,2,4]triazolo[1,5-a]pyrazine-2,8-diamine]		3 to 50	3 to 50
Cc1cc(C)cc(Nc2nccn3nc(Nc4ccc5cnn(Cc6ccccc6)c5c4)nc23)c1 [Example C81, N^2-(1-Benzyl-1H-indazol-6-yl)-N^8-(3,5-dimethyl-phenyl)-[1,2,4]triazolo[1,5-a]pyrazine-2,8-diamine]	3 to 50	3 to 50	
Cc1cc(C)cc(Nc2nccn3nc(Nc4ccc(Sc5nccn5C)c(Cl)c4)nc23)c1 [Example C77, N^2-[3-Chloro-4-(1-methyl-1H-imidazol-2-ylsulfanyl)-phenyl]-N^8-(3,5-dimethyl-phenyl)-[1,2,4]triazolo[1,5-a]pyrazine-2,8-diamine]	3 to 50	3 to 50	
COc1cc(OC)cc(-c2nccn3nc(Nc4ccc(Sc5nccn5C)c(Cl)c4)nc23)c1 [Example C25, [3-Chloro-4-(1-methyl-1H-imidazol-2-ylsulfanyl)-phenyl]-[8-(3,5-dimethoxy-phenyl)-[1,2,4]triazolo[1,5-a]pyrazin-2-yl]-amine]	3 to 50	3 to 50	3 to 50
COCCCNc1nccn2nc(Nc3cccc(C(F)(F)F)c3)nc12 [Example C44, N^8-(3-Methoxy-propyl)-N^2-(3-trifluoromethyl-phenyl)-[1,2,4]triazolo[1,5-a]pyrazine-2,8-diamine]	3 to 50	3 to 50	
Cn1ccnc1Sc1ccc(Nc2nc3c(Nc4ccccc4)nccn3n2)cc1Cl [Example C80, N^2-[3-Chloro-4-(1-methyl-1H-imidazol-2-ylsulfanyl)-phenyl]-N^8-phenyl-[1,2,4]triazolo[1,5-a]pyrazine-2,8-diamine]	3 to 50	0.3 to 3	
NCCNc1nccn2nc(Nc3cccc(C(F)(F)F)c3)nc12 [Example C41, N^8-(2-Amino-ethyl)-N^2-(3-trifluoromethyl-phenyl)-[1,2,4]triazolo[1,5-a]pyrazine-2,8-diamine]	3 to 50	3 to 50	3 to 50
Cc1cc(C)cc(Nc2nccn3nc(Nc4cccc(C(F)(F)F)c4)nc23)c1 [Example C86, N^8-(3,5-Dimethyl-phenyl)-N^2-(3-trifluoromethyl-phenyl)-[1,2,4]triazolo[1,5-a]pyrazine-2,8-diamine]		3 to 50	
CN(C)CCCNc1nccn2nc(Nc3ccccc3)nc12 [Example C50, N^8-(3-Dimethylamino-propyl)-N^2-phenyl-[1,2,4]triazolo[1,5-a]pyrazine-2,8-diamine]	3 to 50	3 to 50	3 to 50
Cc1cccc(Nc2nccn3nc(Nc4ccc(Sc5nccn5C)c(Cl)c4)nc23)c1 [Example C79, N^2-[3-Chloro-4-(1-methyl-1H-imidazol-2-ylsulfanyl)-phenyl]-N^8-m-tolyl-[1,2,4]triazolo[1,5-a]pyrazine-2,8-diamine]	3 to 50	0.3 to 3	
Cc1cc(C)cc(Nc2nc3c(Cl)nccn3n2)c1 [Example B1, 8-Chloro-[1,2, 4]triazolo[1,5-a]pyrazin-2-yl-(3,5-dimethyl-phenyl)-amine]	3 to 50	0.3 to 3	3 to 50
c1ccc(Nc2nc3c(NCCCN4CCOCC4)nccn3n2)cc1 [Example C51, N^8-(3-Morpholin-4-yl-propyl)-N^2-phenyl-[1,2,4]triazolo[1,5-a]pyrazine-2,8-diamine]		0.3 to 3	3 to 50
Clc1nccn2nc(Nc3ccccc3)nc12 [Example B5, 8-Chloro-[1,2,4]triazolo[1,5-a]pyrazin-2-yl-phenyl-amine]	3 to 50	3 to 50	
Cc1cc(C)cc(Nc2nc3c(Nc4ccc5c(n4)NC(=O)C(C)(C)O5)nccn3n2)c1 [Example C60, 6-[2-(3,5-Dimethyl-phenylamino)-[1,2,4]triazolo[1,5-a]pyrazin-8-ylamino]-2,2-dimethyl-4H-pyrido[3,2-b][1,4]oxazin-3-one]		3 to 50	
FC(F)(F)c1cccc(Nc2nccn3nc(Nc4ccccc4)nc23)c1 [Example C76, N^2-Phenyl-N^8-(3-trifluoromethyl-phenyl)-[1,2,4]triazolo[1,5-a]pyrazine-2,8-diamine]	3 to 50	3 to 50	
COc1cc(Nc2nccn3nc(Nc4cccc(C(F)(F)F)c4)nc23)cc(OC)c1 [Example C87, N^8-(3,5-Dimethoxy-phenyl)-N^2-(3-trifluoromethyl-phenyl)-[1,2,4]triazolo[1,5-a]pyrazine-2,8-diamine]		3 to 50	
c1ccc(Cn2ncc3ccc(Nc4nc5c(Nc6ccccc6)nccn5n4)cc32)cc1 [Example C85, N^2-(1-Benzyl-1H-indazol-6-yl)-N^8-phenyl-[1,2,4]triazolo[1,5-a]pyrazine-2,8-diamine]		0.3 to 3	
COc1cc(OC)cc(-c2nccn3nc(Nc4ccccc4)nc23)c1 [Example C18, [8-(3,5-Dimethoxy-phenyl)-[1,2,4]triazolo[1,5-a]pyrazin-2-yl]-phenyl-amine]	< 0.3	3 to 50	
